The IC50 is the concentration that inhibits the measured activity by half.

In this experiment the target is human IDO1 (Homo sapiens, UniProt P14902). Nature of the experiment: Assessment of human IDO-1 inhibitory activity in HEK cells (human IDO1/HEK293 cells, kynurenine read-out with Ehrlich reagent, absorbance 490 nm). It counts as cell-based. Set-up: expressed in transfected cells. The following applies: HEK Human IDO-1 cellular assay. The procedure, abridged:
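HEK293 cells stably expressing human IDO1 were seeded at 10,000 per well in phenol red-free RPMI with 10% FBS, treated with compound for 20 h at 37 °C. Kynurenine was measured after TCA (0.2% final) and 30 min at 50 °C, using Ehrlich reagent, A490. IC50 normalised to DMSO (0%) and 500 nM reference standard (100%).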

Chain of human IDO1 (P14902 whole entry): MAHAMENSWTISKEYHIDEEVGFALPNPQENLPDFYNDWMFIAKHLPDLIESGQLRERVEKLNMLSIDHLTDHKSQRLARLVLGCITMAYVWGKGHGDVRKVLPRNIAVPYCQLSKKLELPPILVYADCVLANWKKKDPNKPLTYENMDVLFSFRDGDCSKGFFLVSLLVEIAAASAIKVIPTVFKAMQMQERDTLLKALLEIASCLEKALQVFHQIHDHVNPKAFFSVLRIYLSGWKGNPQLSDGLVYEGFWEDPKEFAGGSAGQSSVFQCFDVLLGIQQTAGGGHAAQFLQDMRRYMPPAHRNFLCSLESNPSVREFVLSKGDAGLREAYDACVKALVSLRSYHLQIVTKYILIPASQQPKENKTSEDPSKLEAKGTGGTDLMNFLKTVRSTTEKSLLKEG

On to `CCOc1ccc(NC(=O)Nc2cc(C(COC)CC(=O)O)ccc2N(CC(C)C)C2CCCCC2)cc1` (single isomer, unassigned) [Example 1231, 3-(4-(Cyclohexyl(isobutyl)amino)-3-(3-(4-ethoxyphenyl)ureido)phenyl)-4-methoxybutanoic acid], for which the IC50 is under 50 nM.

As to `CCOc1ccc(NC(=O)Nc2cc(C(COC)CC(=O)O)ccc2N(CC(C)C)C2CCCCC2)c(F)c1` (single isomer, unassigned) [Example 1232, 3-(4-(Cyclohexyl(isobutyl)amino)-3-(3-(4-ethoxy-2-fluorophenyl)ureido)phenyl)-4-methoxybutanoic acid], the IC50 is under 50 nM.

With `COCC(CC(=O)O)c1ccc(N(CC(C)C)C2CCCCC2)c(NC(=O)Nc2ccc(OC)cc2F)c1` (single isomer, unassigned) [Example 1233, 3-(4-(Cyclohexyl(isobutyl)amino)-3-(3-(2-fluoro-4-methoxyphenyl)ureido)phenyl)-4-methoxybutanoic acid], the IC50 was under 5 nM.

`COCC(CC(=O)O)c1ccc(N(CC(C)C)C2CCCCC2)c(NC(=O)Cc2cc(C)on2)c1` (single isomer, unassigned) [Example 1234, 3-(4-(Cyclohexyl(isobutyl)amino)-3-(2-(5-methylisoxazol-3-yl)acetamido)phenyl)-4-methoxybutanoic acid]: the IC50 was over 50 nM.

As to `CCOc1ccc(NC(=O)Nc2cc(C(COC)CC(=O)O)ccc2N(CC(C)C)C2CCCCC2)cc1` (single isomer, unassigned) [Example 1235, 3-(4-(Cyclohexyl(isobutyl)amino)-3-(3-(4-ethoxyphenyl)ureido)phenyl)-4-methoxybutanoic acid], the IC50 is under 5 nM.

Turning to `CCOc1ccc(NC(=O)Nc2cc(C(COC)CC(=O)O)ccc2N(CC(C)C)C2CCCCC2)c(F)c1` (single isomer, unassigned) [Example 1236, 3-(4-(Cyclohexyl(isobutyl)amino)-3-(3-(4-ethoxy-2-fluorophenyl)ureido)phenyl)-4-methoxybutanoic acid], the IC50 is under 5 nM.

For `COCC(CC(=O)O)c1ccc(N(CC(C)C)C2CCCCC2)c(NC(=O)Cc2ccc(C)cc2)c1` (single isomer, unassigned) [Example 1237, 3-(4-(Cyclohexyl(isobutyl)amino)-3-(2-(p-tolyl)acetamido)phenyl)-4-methoxybutanoic acid], the concentration for half-maximal inhibition (IC50) was under 50 nM.

`CCOc1ccc(CC(=O)Nc2cc(C(COC)CC(=O)O)ccc2N(CC(C)C)C2CCCCC2)cc1` (single isomer, unassigned) [Example 1241, 3-(4-(Cyclohexyl(isobutyl)amino)-3-(2-(4-ethoxyphenyl)acetamido)phenyl)-4-methoxybutanoic acid]: the 50% inhibitory concentration (IC50) was under 50 nM.

Take `COCC(CC(=O)O)c1ccc(N(CC(C)C)C2CCCCC2)c(NC(=O)Nc2ccc(OC(F)(F)F)cc2)c1` (single isomer, unassigned) [Example 1243, 3-(4-(Cyclohexyl(isobutyl)amino)-3-(3-(4-(trifluoromethoxy)phenyl)ureido)phenyl)-4-methoxybutanoic acid]: the half-maximal inhibitory concentration (IC50) is under 50 nM.

Regarding `COCC(CC(=O)O)c1ccc(N(CC(C)C)C2CCCCC2)c(NC(=O)Nc2ccc(OC(F)(F)F)cc2)c1` (single isomer, unassigned) [Example 1244, 3-(4-(Cyclohexyl(isobutyl)amino)-3-(3-(4-(trifluoromethoxy)phenyl)ureido)phenyl)-4-methoxybutanoic acid], the concentration for half-maximal inhibition (IC50) was under 5 nM.

Consider `COCC(CC(=O)O)c1ccc(N(CC(C)C)C2CCCCC2)c(NC(=O)Cc2ccc(Cl)cc2F)c1` (single isomer, unassigned) [Example 1245, 3-(3-(2-(4-Chloro-2-fluorophenyl)acetamido)-4-(cyclohexyl(isobutyl)amino)phenyl)-4-methoxybutanoic acid], for which the 50% inhibitory concentration (IC50) is under 5 nM.

As for `Cc1ccc(CC(=O)Nc2cc(C(CC(=O)O)C3CC3)ccc2N(CC(C)C)C2CCCCC2)cc1` (single isomer, unassigned) [Example 1247, 3-(4-(Cyclohexyl(isobutyl)amino)-3-(2-(p-tolyl)acetamido)phenyl)-3-cyclopropylpropanoic acid], the 50% inhibitory concentration (IC50) was under 5 nM.

For `CCOc1ccc(CC(=O)Nc2cc(C(CC(=O)O)C3CC3)ccc2N(CC(C)C)C2CCCCC2)cc1` (single isomer, unassigned) [Example 1248, 3-(4-(Cyclohexyl(isobutyl)amino)-3-(2-(4-ethoxyphenyl)acetamido)phenyl)-3-cyclopropylpropanoic acid], the concentration for half-maximal inhibition (IC50) was under 5 nM.

For `Cc1cc(CC(=O)Nc2cc(C(CC(=O)O)C3CC3)ccc2N(CC(C)C)C2CCCCC2)no1` (single isomer, unassigned) [Example 1251, 3-(4-(Cyclohexyl(isobutyl)amino)-3-(2-(5-methylisoxazol-3-yl)acetamido)phenyl)-3-cyclopropylpropanoic acid], the half-inhibitory concentration (IC50) is under 50 nM.

On to `CCOc1ncc(Nc2cc([C@@H](CC)CC(=O)NS(C)(=O)=O)ccc2N(CC)C2CCOCC2)cn1` (stereo in doubt) [Example 1076, 3-(3-((2-Ethoxypyrimidin-5-yl)amino)-4-(ethyl(tetrahydro-2H-pyran-4-yl)amino)phenyl)-N-(methylsulfonyl)pentanamide], for which the half-inhibitory concentration (IC50) was under 50 nM.

With `CCN(c1ccc([C@@H](COC)CC(=O)NS(C)(=O)=O)cc1Nc1ccc(C#N)cc1)C1CCOCC1` (stereo in doubt) [Example 1077, 3-(3-((4-Cyanophenyl)amino)-4-(ethyl(tetrahydro-2H-pyran-4-yl)amino)phenyl)-4-methoxy-N-(methylsulfonyl)butanamide], the IC50 was under 50 nM.

Consider `CCN(c1ccc(C(C)(C)CC(=O)O)cc1Nc1ccc(Cl)cc1)C1CCC(C)(O)CC1` (stereo not drawn) [Example 1, 3-(3-((4-Chlorophenyl)amino)-4-(ethyl(4-hydroxy-4-methylcyclohexyl)amino)phenyl)-3-methylbutanoic acid], for which the concentration for half-maximal inhibition (IC50) is under 5 nM.

Consider `CCN(c1ccc(C(C)(C)CC(=O)O)cc1Nc1ccc(F)cc1)C1CCC(C)(O)CC1` (stereo not drawn) [Example 2, 3-(4-(ethyl(4-hydroxy-4-methylcyclohexyl)amino)-3-((4-fluorophenyl)amino)phenyl)-3-methylbutanoic acid], for which the IC50 is under 5 nM.

As for `CCOc1ncc(Nc2cc(C(C)(C)CC(=O)O)ccc2N(CC)C2CCC(C)(O)CC2)cn1` (stereo not drawn) [Example 3, 3-(3-((2-ethoxypyrimidin-5-yl)amino)-4-(ethyl(4-hydroxy-4-methylcyclohexyl)amino)phenyl)-3-methylbutanoic acid], the half-maximal inhibitory concentration (IC50) was over 50 nM.

In the case of `CCN(c1ccc(C(C)(C)CC(=O)O)cc1NC(=O)Nc1ccc(C)cc1)C1CCC(C)(O)CC1` (stereo not drawn) [Example 5, 3-(4-(Ethyl(4-hydroxy-4-methylcyclohexyl)amino)-3-(3-(p-tolyl)ureido)phenyl)-3-methylbutanoic acid], the IC50 is under 50 nM.

For `Cc1nc2ccc(Nc3cc(C(C)(C)CC(=O)O)ccc3N(CC(C)C)CC(C)C)cc2s1` [Example 146, 3-(4-(diisobutylamino)-3-((2-methylbenzo[d]thiazol-6-yl)amino)phenyl)-3-methylbutanoic acid], the IC50 is over 50 nM.

Regarding `CC(C)CN(CC(C)C)c1ccc(C(C)(C)CC(=O)O)cc1Nc1ccc2c(c1)OC(F)(F)O2` [Example 147, 3-(3-((2,2-difluorobenzo[d][1,3]dioxol-5-yl)amino)-4-(diisobutylamino)phenyl)-3-methylbutanoic acid], the IC50 is under 50 nM.

Consider `CCOc1ncc(Nc2cc(C(C)(C)CC(=O)O)ccc2N(CC(C)C)CC(C)C)cn1` [Example 148, 3-(4-(diisobutylamino)-3-((2-ethoxypyrimidin-5-yl)amino)phenyl)-3-methyl butanoic acid], for which the half-maximal inhibitory concentration (IC50) is under 50 nM.

On to `CCOc1ncc(Nc2cc(C(C)(C)CC(=O)O)ccc2N(CC)C2CCOCC2)cn1` [Example 159, 3-(3-((2-Ethoxypyrimidin-5-yl)amino)-4-(ethyl(tetrahydro-2H-pyran-4-yl)amino)phenyl)-3-methylbutanoic acid], for which the half-maximal inhibitory concentration (IC50) is under 50 nM.

Turning to `CCN(c1ccc(C(C)(C)CC(=O)O)cc1Nc1ccc(C#N)cc1)C1CCOCC1` [Example 160, 3-(3-((4-cyanophenyl)amino)-4-(ethyl(tetrahydro-2H-pyran-4-yl)amino)phenyl)-3-methylbutanoic acid], the IC50 is under 5 nM.

As to `CCN(c1ccc(C(C)(C)CC(=O)O)cc1Nc1ccc2c(c1)OC(F)(F)O2)C1CCOCC1` [Example 161, 3-(3-((2,2-difluorobenzo[d][1,3]dioxol-5-yl)amino)-4-(ethyl (tetrahydro-2H-pyran-4-yl)amino)phenyl)-3-methylbutanoic acid], the IC50 is under 5 nM.

`CCN(c1ccc(C(C)(C)CC(=O)O)cc1Nc1cnc(OC)nc1)C1CCOCC1` [Example 162, 3-(4-(ethyl(tetrahydro-2H-pyran-4-yl)amino)-3-((2-methoxypyrimidin-5-yl)amino)phenyl)-3-methylbutanoic acid]: the IC50 is under 50 nM.

Regarding `CCN(c1ccc(C(C)(C)CC(=O)O)cc1Nc1cnc(OCC2CC2)nc1)C1CCOCC1` [Example 163, 3-(3-((2-(cyclopropylmethoxy)pyrimidin-5-yl)amino)-4-(ethyl (tetrahydro-2H-pyran-4-yl)amino)phenyl)-3-methylbutanoic acid], the IC50 was under 5 nM.

In the case of `CCN(c1ccc(C(C)(C)CC(=O)O)cc1Nc1ccc2nc(C)sc2c1)C1CCOCC1` [Example 164, 3-(4-(ethyl(tetrahydro-2H-pyran-4-yl)amino)-3-((2-methylbenzo[d]thiazol-6-yl)amino)phenyl)-3-methylbutanoic acid], the IC50 was under 50 nM.

For `CCOc1ccc(NC(=O)Nc2cc(C(C)(C)CC(=O)O)ccc2N(CC)C2CCOCC2)cc1` [Example 166, 3-(3-(3-(4-Ethoxyphenyl)ureido)-4-(ethyl(tetrahydro-2H-pyran-4-yl)amino)phenyl)-3-methylbutanoic acid], the IC50 was over 50 nM.
